Test results taken from patent US20070249599A1, “Novel Chemical Compounds” (priority 2004, published 2007).

Target: T1, hYAK3 (Homo sapiens, UniProt O43781)
T1 construct: GST (N); His6 (C); made in house; host or cells: baculovirus expression system in Sf9 cells
T1 sequence (O43781 124-526): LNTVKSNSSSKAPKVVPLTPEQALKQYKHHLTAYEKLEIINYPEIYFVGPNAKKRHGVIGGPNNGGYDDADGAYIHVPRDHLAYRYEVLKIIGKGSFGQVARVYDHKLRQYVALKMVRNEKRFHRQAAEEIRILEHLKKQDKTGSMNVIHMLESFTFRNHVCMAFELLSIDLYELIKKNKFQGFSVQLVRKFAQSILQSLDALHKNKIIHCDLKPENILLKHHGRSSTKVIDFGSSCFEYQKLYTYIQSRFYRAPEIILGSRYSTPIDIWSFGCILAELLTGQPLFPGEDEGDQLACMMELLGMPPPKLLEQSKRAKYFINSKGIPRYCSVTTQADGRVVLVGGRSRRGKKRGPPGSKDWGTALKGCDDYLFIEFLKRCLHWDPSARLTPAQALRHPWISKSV
Assay: YAK3 Scintillation Proximity Assay using Ser164 of myelin basic protein as the phosphoacceptor (kinase assay of purified hYAK3)
Type: biochemical
Settings: purified GST-hYak3-His6 (aa 124-526), 4 nM; 0.001 mM ATP; 4 μM Ser164 peptide; 2 hours at room temperature; pIC50 = −log10(IC50)
Procedure: Substrate phosphorylation assays were carried out as follows:
YAK3 Scintillation Proximity Assays Using Ser164 of Myelin Basic Protein as the Phosphoacceptor
The source of Ser164 substrate peptide The biotinylated Ser164, S164A peptide(Biotinyl-LGGRDSRAGS*PMARR-OH), sequence derived from the C-terminus of bovine myelin basic protein (MBP) with Ser162 substituted as Ala 162, was purchased from California Peptide Research Inc. (Napa, Calif.), and its purity was determined by HPLC. Phosphorylation occurs at position 164 (marked S* above). The calculated molecular mass of the peptide was 2166 dalton. Solid sample was dissolved at 10 mM in DMSO, aliquoted, and stored at −20° C. until use.
hYAK3: Glutathione-S-Transferase (GST)-hYak3-His6 containing amino acid residues 124-526 of human YAK3 (aa 124-526 of SEQ ID NO 2. in U.S. Pat. No. 6,323,318) was purified from baculovirus expression system in Sf9 cells using Glutathione Sepharose 4B column chromatography followed by Ni-NTA-Agarose column chromatography. Purity greater than 65% typically was achieved. Samples, in 50 mM Tris, 150 mM NaCl, 10% glycerol, 0.1% Triton, 250 mM imidazole, 10 mM β-mercapto ethanol, pH 8.0. were stored at −80° C. until use.
Kinase assay of purified hYAK3: Assays were performed in 96 well (Costar, Catalog No. 3789) or 384 well plates (Costar, Catalog No. 3705). Reaction (in 20, 25, or 40 μl volume) mix contained in final concentrations 25 mM Hepes buffer, pH 7.4; 10 mM MgCl2; 10 mM β-mercapto ethanol; 0.0025% Tween-20; 0.001 mM ATP, 0.1 μCi of [γ-^33P]ATP; purified hYAK3 (7-14 ng/assay; 4 nM final); and 4 μM Ser164 peptide. Compounds, titrated in DMSO, were evaluated at concentrations ranging from 50 μM to 0.5 nM. […] Reactions were incubated for 2 hours at room temperature and were stopped by a 75 ul addition of […] Streptavidin Scintillation Proximity beads (Amersham Pharmacia Biotech, Catalog No. RPNQ 0007) in PBS, pH 7.4, 10 mM EDTA, 0.1% Triton X-100, 1 mM ATP. Under the assay conditions defined above, the Km(apparent) for ATP was determined to be 7.2+/−2.4 μM.

IC50	SMILES
102 to 1000 nM	Cn1c(C(C)(C)C)nc2ccc(/C=C3\SC(Nc4ccccc4Cl)=NC3=O)cc21 [Example 53, (5Z)-2-[(2-Chlorophenyl)amino]-5-{[2-(1,1-dimethylethyl)-1-methyl-1H-benzimidazol-6-yl]methylidene}-1,3-thiazol-4(5H)-one]
1.02 to 10 nM	Cc1nc2ccc(C=C3SC(=Nc4c(Cl)cccc4Cl)NC3=O)cc2o1 [Example 59, 2-(2,6-Dichloro-phenylimino)-5-(2-methyl-benzooxazol-6-yl-methylene)-thiazolidin-4-one]
10.2 to 100 nM	CN(C)CCn1nnc2ccc(/C=C3\SC(Nc4c(Cl)cccc4Cl)=NC3=O)cc21 [Example 58, (5Z)-2-[(2,6-dichlorophenyl)amino]-5-({1-[2-(dimethylamino)ethyl]-1H-1,2,3-benzotriazol-6-yl}methylidene)-1,3-thiazol-4(5H)-one]
